Source: ChEMBL document CHEMBL1201861, “Genomics of Drug Sensitity in Cancer screening data, Wellcome Trust Sanger Institute”
Blank lines part the entries; values can stand above or below the molecule they belong to.

How the values were obtained:
Test in all cases: cells
[1] = tested on: DMS-273; type: functional, cell-based; details: Homo sapiens
Description: SANGER: Inhibition of human DMS-273 cell growth in a cell viability assay.

[2] = tested on: SNU-387; type: functional, cell-based; details: Homo sapiens
Description: SANGER: Inhibition of human SNU-387 cell growth in a cell viability assay.

[3] = tested on: OVCAR-5; type: functional, cell-based; details: Homo sapiens;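 also: growth inhibition of human OVCAR-5 cells, read out with a cell viability assay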
Description: SANGER: Inhibition of human OVCAR-5 cell growth in a cell viability assay.

[4] = tested on: KYSE-270; type: functional, cell-based; details: Homo sapiens;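 also: cell growth inhibition measured with a viability assay in the human KYSE-270 line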
Description: SANGER: Inhibition of human KYSE-270 cell growth in a cell viability assay.

[5] = tested on: ACHN; type: functional, cell-based; details: Homo sapiens;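 also: cell viability read-out used to gauge how strongly growth of human ACHN cells is suppressed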
Description: SANGER: Inhibition of human ACHN cell growth in a cell viability assay.

[6] = tested on: G-361; type: functional, cell-based; details: Homo sapiens
[7] = tested on: MC-IXC; type: functional, cell-based; details: Homo sapiens;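 also: growth inhibition of MC-IXC cells, read out with a cell viability assay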
Description: SANGER: Inhibition of human MC-IXC cell growth in a cell viability assay.

[8] = tested on: NCI-H810; type: functional, cell-based; details: Homo sapiens;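 also: IC50 reflects inhibition of cancer cell line growth, read out with a cell viability assay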
Description: SANGER: Inhibition of human NCI-H810 cell growth in a cell viability assay.

[9] = tested on: NCI-H1755; type: functional, cell-based; details: Homo sapiens;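 also: cell viability readout used to measure growth inhibition of NCI-H1755 cells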
Description: SANGER: Inhibition of human NCI-H1755 cell growth in a cell viability assay.

[10] = tested on: SW1783; type: functional, cell-based; details: Homo sapiens;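 also: cell growth inhibition measured with a viability assay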
Description: SANGER: Inhibition of human SW1783 cell growth in a cell viability assay.

[11] = tested on: CHP-212; type: functional, cell-based; details: Homo sapiens
Description: SANGER: Inhibition of human CHP-212 cell growth in a cell viability assay.

[12] = tested on: Ca9-22; type: functional, cell-based; details: Homo sapiens;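 also: growth inhibition of Ca9-22 cells, read out with a cell viability assay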
Description: SANGER: Inhibition of human Ca9-22 cell growth in a cell viability assay.

[13] = tested on: SW1463; type: functional, cell-based; details: Homo sapiens;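 also: growth inhibition of SW1463 cells, determined with a cell viability assay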
Description: SANGER: Inhibition of human SW1463 cell growth in a cell viability assay.

[14] = tested on: RD; type: functional, cell-based; details: Homo sapiens
Description: SANGER: Inhibition of human RD cell growth in a cell viability assay.

[15] = tested on: BXPC-3; type: functional, cell-based; details: Homo sapiens;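 also: growth inhibition of human BxPC-3 cells, read out by a cell viability assay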
Description: SANGER: Inhibition of human BxPC-3 cell growth in a cell viability assay.

[16] = tested on: CAL-72; type: functional, cell-based; details: Homo sapiens;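 also: cell viability assay measuring inhibition of proliferation in the CAL-72 cell line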
Description: SANGER: Inhibition of human CAL-72 cell growth in a cell viability assay.

[17] = tested on: OAW-28; type: functional, cell-based; details: Homo sapiens;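 also: growth inhibition of OAW-28 cells, read out with a cell viability assay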
Description: SANGER: Inhibition of human OAW-28 cell growth in a cell viability assay.

[18] = tested on: SW13; type: functional, cell-based; details: Homo sapiens;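 also: IC50 is inhibition of SW13 cell growth, read out with a cell viability assay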
Description: SANGER: Inhibition of human SW13 cell growth in a cell viability assay.

[19] = tested on: G-402; type: functional, cell-based; details: Homo sapiens
Description: SANGER: Inhibition of human G-402 cell growth in a cell viability assay.

[20] = tested on: SK-LU-1; type: functional, cell-based; details: Homo sapiens;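 also: cell viability assay measuring growth inhibition of human SK-LU-1 cells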
Description: SANGER: Inhibition of human SK-LU-1 cell growth in a cell viability assay.

[21] = tested on: NCI-H2030; type: functional, cell-based; details: Homo sapiens;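 also: growth inhibition of human NCI-H2030 cells, read out by a cell viability assay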
Description: SANGER: Inhibition of human NCI-H2030 cell growth in a cell viability assay.

[22] = tested on: ESS-1; type: functional, cell-based; details: Homo sapiens;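 also: growth inhibition of human ESS-1 cells, read out by a cell viability assay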
Description: SANGER: Inhibition of human ESS-1 cell growth in a cell viability assay.

[23] = tested on: MKN-1; type: functional, cell-based; details: Homo sapiens;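 also: growth inhibition of human MKN1 cells, read out by a cell viability measurement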
Description: SANGER: Inhibition of human MKN1 cell growth in a cell viability assay.

[24] = tested on: NB12; type: functional, cell-based; details: Homo sapiens;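 also: growth inhibition of human NB12 cells, read out by a cell viability assay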
Description: SANGER: Inhibition of human NB12 cell growth in a cell viability assay.

[25] = tested on: CWR22R; type: functional, cell-based; details: Homo sapiens, 22Rv1;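 also: growth inhibition of 22Rv1 cells, read out with a cell viability assay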
Description: SANGER: Inhibition of human 22RV1 cell growth in a cell viability assay.

[26] = tested on: SW-620; type: functional, cell-based; details: Homo sapiens;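 also: growth inhibition of human SW-620 cells, measured by a cell viability assay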
Description: SANGER: Inhibition of human SW620 cell growth in a cell viability assay.

[27] = tested on: BHY; type: functional, cell-based; details: Homo sapiens;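 also: cell growth inhibition read out by a viability assay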
Description: SANGER: Inhibition of human BHY cell growth in a cell viability assay.

[28] = tested on: NCI-H2342; type: functional, cell-based; details: Homo sapiens;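 also: growth inhibition of the cancer cell line, determined with a cell viability assay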
Description: SANGER: Inhibition of human NCI-H2342 cell growth in a cell viability assay.

[29] = tested on: MDA-MB-231; type: functional, cell-based; details: Homo sapiens
Description: SANGER: Inhibition of human MDA-MB-231 cell growth in a cell viability assay.

[30] = tested on: ChaGo-K-1; type: functional, cell-based; details: Homo sapiens;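 also: growth inhibition of ChaGo-K-1 cells, read out with a cell viability assay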
Description: SANGER: Inhibition of human ChaGo-K-1 cell growth in a cell viability assay.

[31] = tested on: LoVo; type: functional, cell-based; details: Homo sapiens;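 also: growth inhibition of human LoVo cells, read out with a cell viability assay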
Description: SANGER: Inhibition of human LoVo cell growth in a cell viability assay.

[32] = tested on: NCI-H650; type: functional, cell-based; details: Homo sapiens;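 also: growth inhibition of NCI-H650 cells, read out by a viability assay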
Description: SANGER: Inhibition of human NCI-H650 cell growth in a cell viability assay.

[33] = tested on: HuO-3N1; type: functional, cell-based; details: Homo sapiens;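 also: cell viability readout used to measure how strongly compounds suppress proliferation of human HuO-3N1 cells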
Description: SANGER: Inhibition of human HuO-3N1 cell growth in a cell viability assay.

[34] = tested on: SNU-423; type: functional, cell-based; details: Homo sapiens
Description: SANGER: Inhibition of human SNU-423 cell growth in a cell viability assay.

[35] = tested on: SK-HEP1; type: functional, cell-based, SK-HEP-1; details: Homo sapiens;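 also: cell viability readout used to quantify reduction in proliferation of human SK-HEP-1 cells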
Description: SANGER: Inhibition of human SK-HEP-1 cell growth in a cell viability assay.

[36] = tested on: CAPAN-1; type: functional, cell-based; details: Homo sapiens;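 also: growth suppression of CAPAN-1 cells, read out by a cell viability assay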
Description: SANGER: Inhibition of human CAPAN-1 cell growth in a cell viability assay.

[37] = tested on: NCI-H2228; type: functional, cell-based; details: Homo sapiens;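 also: growth inhibition of human NCI-H2228 cells, read out by a cell viability assay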
Description: SANGER: Inhibition of human NCI-H2228 cell growth in a cell viability assay.

[38] = tested on: WM-115; type: functional, cell-based; details: Homo sapiens
Description: SANGER: Inhibition of human WM-115 cell growth in a cell viability assay.

[39] = tested on: CAMA-1; type: functional, cell-based; details: Homo sapiens;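 also: growth inhibition of CAMA-1 cells, read out with a cell viability assay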
Description: SANGER: Inhibition of human CAMA-1 cell growth in a cell viability assay.

[40] = tested on: MeWo; type: functional, cell-based; details: Homo sapiens;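 also: growth inhibition of MeWo cells, determined by a cell viability readout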
Description: SANGER: Inhibition of human Mewo cell growth in a cell viability assay.

[41] = tested on: HTC-C3; type: functional, cell-based; details: Homo sapiens;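 also: inhibition of cell growth, read out with a cell viability assay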
Description: SANGER: Inhibition of human HTC-C3 cell growth in a cell viability assay.

[42] = tested on: SCC-25; type: functional, cell-based; details: Homo sapiens;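 also: growth inhibition of SCC-25 cells, measured with a cell viability assay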
Description: SANGER: Inhibition of human SCC-25 cell growth in a cell viability assay.

[43] = tested on: HT-1376; type: functional, cell-based; details: Homo sapiens
Description: SANGER: Inhibition of human HT-1376 cell growth in a cell viability assay.

[44] = tested on: SW1088; type: functional, cell-based; details: Homo sapiens;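 also: growth inhibition of human SW1088 cells, read out by a cell viability assay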
Description: SANGER: Inhibition of human SW1088 cell growth in a cell viability assay.

[45] = tested on: HSC-2; type: functional, cell-based; details: Homo sapiens;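 also: growth inhibition of human HSC-2 cells, read out by a cell viability assay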
Description: SANGER: Inhibition of human HSC-2 cell growth in a cell viability assay.

[46] = tested on: SK-MEL-28; type: functional, cell-based; details: Homo sapiens;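 also: growth inhibition of human SK-MEL-28 cells, read out with a cell viability assay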
Description: SANGER: Inhibition of human SK-MEL-28 cell growth in a cell viability assay.

[47] = tested on: COR-L105; type: functional, cell-based; details: Homo sapiens;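 also: cell growth inhibition determined with a viability assay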
Description: SANGER: Inhibition of human COR-L105 cell growth in a cell viability assay.

IC50 [1]: 324 nM
IC50 [2]: 139 nM
IC50 [3]: > 512 nM
IC50 [4]: 168 nM
IC50 [5]: 331 nM
IC50 [6]: 209 nM
IC50 [7]: 266 nM
IC50 [8]: 210 nM
IC50 [9]: 62.7 nM
IC50 [10]: > 512 nM
Compound: CO[C@@H]1[C@H](N(C)C(=O)c2ccccc2)C[C@H]2O[C@]1(C)n1c3ccccc3c3c4c(c5c6ccccc6n2c5c31)C(=O)NC4 [MIDOSTAURIN]

Compound: CC1(C)CCC(c2ccc(Cl)cc2)=C(CN2CCN(c3ccc(C(=O)NS(=O)(=O)c4ccc(N[C@H](CCN5CCOCC5)CSc5ccccc5)c(S(=O)(=O)C(F)(F)F)c4)cc3)CC2)C1 [NAVITOCLAX]
IC50 [11]: > 2000 nM
IC50 [12]: > 2000 nM
IC50 [1]: > 2000 nM
IC50 [2]: > 2000 nM
IC50 [13]: > 2000 nM
IC50 [14]: 759 nM
IC50 [15]: > 2000 nM
IC50 [16]: > 2000 nM
IC50 [17]: 784 nM
IC50 [18]: > 2000 nM
IC50 [19]: > 2000 nM
IC50 [20]: > 2000 nM
IC50 [21]: > 2000 nM
IC50 [3]: > 2000 nM
IC50 [22]: > 2000 nM
IC50 [23]: > 2000 nM
IC50 [24]: 231 nM
IC50 [4]: > 2000 nM
IC50 [25]: > 2000 nM
IC50 [26]: > 2000 nM
IC50 [27]: > 2000 nM
IC50 [5]: > 2000 nM
IC50 [28]: 1400 nM
IC50 [29]: > 2000 nM
IC50 [30]: > 2000 nM
IC50 [31]: > 2000 nM
IC50 [32]: > 2000 nM
IC50 [33]: > 2000 nM
IC50 [34]: 1780 nM
IC50 [7]: > 2000 nM
IC50 [35]: > 2000 nM
IC50 [8]: > 2000 nM
IC50 [36]: > 2000 nM
IC50 [37]: > 2000 nM
IC50 [9]: > 2000 nM
IC50 [38]: 277 nM
IC50 [39]: > 2000 nM
IC50 [40]: > 2000 nM
IC50 [41]: > 2000 nM
IC50 [42]: > 2000 nM
IC50 [10]: > 2000 nM
IC50 [43]: > 2000 nM
IC50 [44]: > 2000 nM
IC50 [45]: > 2000 nM
IC50 [46]: > 2000 nM
IC50 [47]: > 2000 nM

Compound: CS(=O)(=O)N1CCN(Cc2cc3nc(-c4cccc5[nH]ncc45)nc(N4CCOCC4)c3s2)CC1 [PICTILISIB]
IC50 [11]: 2180 nM
IC50 [12]: > 4000 nM
IC50 [1]: 2860 nM
IC50 [2]: 3160 nM
IC50 [13]: > 4000 nM
IC50 [14]: > 4000 nM
IC50 [15]: > 4000 nM
IC50 [16]: > 4000 nM
IC50 [17]: > 4000 nM
IC50 [18]: > 4000 nM
IC50 [19]: 1900 nM
IC50 [20]: 2450 nM
IC50 [21]: 2240 nM
IC50 [3]: 940 nM
IC50 [22]: > 4000 nM
IC50 [23]: > 4000 nM
IC50 [24]: 2850 nM
IC50 [4]: 1300 nM
IC50 [25]: 2460 nM
IC50 [26]: > 4000 nM
IC50 [27]: 3260 nM
IC50 [5]: > 4000 nM
IC50 [28]: > 4000 nM
IC50 [29]: > 4000 nM
IC50 [30]: > 4000 nM
IC50 [31]: 778 nM
IC50 [32]: > 4000 nM
IC50 [33]: 642 nM
IC50 [34]: 2400 nM
IC50 [7]: > 4000 nM
IC50 [35]: > 4000 nM
IC50 [8]: > 4000 nM
IC50 [36]: > 4000 nM
IC50 [37]: 1850 nM
IC50 [9]: > 4000 nM
IC50 [38]: 1070 nM
IC50 [39]: > 4000 nM
IC50 [40]: 3420 nM
IC50 [41]: 3290 nM
IC50 [42]: 914 nM
IC50 [10]: > 4000 nM
IC50 [43]: > 4000 nM
IC50 [44]: 2490 nM
IC50 [45]: > 4000 nM
IC50 [46]: 1560 nM
IC50 [47]: > 4000 nM
